Consider 19 compounds from US20240316051A1, “A PHARMACEUTICAL COMBINATION AND USE THEREOF” (Ascentage Pharma (Suzhou) Co., Ltd., priority 2021, published 2024).

For this assay, the target named is T1, EED (1-441)-His protein (Homo sapiens, UniProt O75530).
T1 construct: 20 nM EED (1-441)-His protein
The experiment in a line: EED-H3K27Me3 peptide competition binding assay by AlphaScreen. To be noted: read-out: Alpha screen. The procedure: EED-H3K27Me3 Peptide Competition Binding Assay by AlphaScreen (α-Screen):
The compounds at each concentration (2.5 μl of each) were transferred into a 384-well Perkin Elmer OptiPlate-384 white plates. 5 μl of solutions containing 20 nM EED (1-441)-His protein in the buffer (25 mM HEPES, pH 8, 0.02% Tween-20, 0.5% BSA) were added to the wells and then incubated with compound for 15 min. 2.5 μl of solutions containing 20 nM biotin-H3K27Me3 (19-33) peptide in the buffer (25 mM HEPES, pH 8, 0.02% Tween-20, 0.5% BSA) were added to the wells and then incubated with compound for 30 min. AlphaScreen detection beads mix was prepared immediately before use by mixing nickel chelate acceptor beads and streptavidin donor beads in a 1:1 ratio (Perkin Elmer, Product No. 6760619C/M/R) into the buffer described above. Then 10 μl of the detection beads mix was added to the plate and incubated in the dark at RT for 1 h. The final concentration of donor and acceptor beads was 10 μg/ml for each. Plates were read on CLARIOStar plate reader (BMG Labtech) using the AlphaScreen setting adapted for optimal signal detection with a 615 nm filter, after sample excitation at 680 nm. The emission signal at 615 nm was used to quantify compound inhibition. AlphaScreen signals were normalized based on the reading coming from the positive (maximum signal control) and negative controls (minimum signal control) to give percentage of activities left. The data were then fit to a dose response equation to get the IC50 values.
On the technique in general: Bead proximity is the source of the signal in Alpha formats.

Where two headings read alike, the source gives them in different places.

T1 sequence (O75530 whole entry): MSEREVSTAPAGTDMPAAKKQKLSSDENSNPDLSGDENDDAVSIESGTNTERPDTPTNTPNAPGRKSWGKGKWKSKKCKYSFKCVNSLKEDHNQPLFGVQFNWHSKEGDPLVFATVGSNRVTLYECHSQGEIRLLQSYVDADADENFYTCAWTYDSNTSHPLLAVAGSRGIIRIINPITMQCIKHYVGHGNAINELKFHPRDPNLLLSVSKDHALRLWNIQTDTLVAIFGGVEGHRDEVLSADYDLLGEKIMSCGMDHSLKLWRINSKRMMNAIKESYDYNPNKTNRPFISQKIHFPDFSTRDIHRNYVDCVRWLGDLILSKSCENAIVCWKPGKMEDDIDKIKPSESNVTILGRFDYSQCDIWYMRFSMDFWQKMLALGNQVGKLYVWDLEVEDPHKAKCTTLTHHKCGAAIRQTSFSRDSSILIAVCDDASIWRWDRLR

With `O=C1c2ncn3c(NCc4c(F)ccc5c4CCO5)ncc(c23)-c2ccc(C(F)(F)F)cc2CN1C1CC1` [Compound 67, 4-cyclopropyl-12-(((5-fluoro-2,3-dihydrobenzo-furan-4-yl)methyl)amino)-7-(trifluoromethyl)-4,5-dihydro-3H-2,4,11,12a-tetraazabenzo[4,5]cycloocta [1,2,3-cd]inden-3-one], the IC50 (Table 4A) was determined as 2.87 nM.
For the compound `CC(F)(F)CN1Cc2nc(C(F)(F)F)ccc2-c2cnc(NCc3c(F)ccc4c3CCO4)n3cnc(c23)C1=O` [Compound 77, 4-(2,2-difluoropropyl)-12-(((5-fluoro-2,3-dihydrobenzofuran-4-yl)methyl)amino)-7-(trifluoromethyl)-4,5-dihydro-3H-2,4,6,11,12a-pentaazabenzo[4,5] cycloocta[1,2,3-cd]inden-3-one], the IC50 (Table 4A) came out at 1.9 nM.
On to `O=C1NCc2c(F)cccc2-c2cnc(NCc3c(F)ccc4c3CCO4)n3cnc1c23` [Compound 20, 6-fluoro-12-(((5-fluoro-2,3-dihydrobenzofuran-4-yl)methyl)amino)-4,5-dihydro-3H-2,4,11,12a-tetra azabenzo[4,5]cycloocta[1,2,3-cd]inden-3-one], for which the IC50 (Table 4A) was 0.61 nM.
For the compound `Cc1ccc2c(n1)Cn1c(C)cnc1-c1ncn3c(NCc4c(F)ccc5c4CCO5)ncc-2c13` [E 18, N-((5-fluoro-2,3-dihydrobenzofuran-4-yl)methyl)-5,8-dimethyl-6H-2,3,5a,7,12,13a-hexaazabenzo[4, 5]cyclopenta[7,8]cycloocta[1,2,3-cd]inden-13-amine], the IC50 (IC50 class, Table 4B) was under 10 nM.
As to `O=C1NCc2ccc(F)cc2-c2cnc(NCc3c(F)ccc4c3CCO4)n3cnc1c23` [Compound 23, 8-fluoro-12-(((5-fluoro-2,3-dihydrobenzofuran-4-yl)methyl)amino)-4,5-dihydro-3H-2,4,11,12a-tetra azabenzo[4,5]cycloocta[1,2,3-cd]inden-3-one], under “Table 4A”, the IC50 was 1.18 nM.
Consider `O=C1OCc2nc(C(F)(F)F)ccc2-c2cnc(NCc3c(F)ccc4c3CCO4)n3cnc1c23` [Compound 14, 12-(((5-fluoro-2,3-dihydrobenzofuran-4-yl)methyl)amino)-7-(trifluoromethyl)-3H,5H-4-oxa-2,6,11, 12a-tetraazabenzo[4,5]cycloocta[1,2,3-cd]inden-3-one], for which the IC50 (Table 4A) came to 3.35 nM.
With `Cc1ccc2c(n1)CCNC(=O)c1ncn3c(NCc4c(F)ccc5c4CCO5)ncc-2c13` [E 29, 13-(((5-fluoro-2,3-dihydrobenzofuran-4-yl)methyl)amino)-8-methyl-5,6-dihydro-2,4,7,12,13a-pentaazabenzo[4,5]cyclonona[1,2,3-cd]inden-3(4H)-one], where the note is “IC50 class, Table 4B”, the IC50 was 10 to 100 nM.
As to `CCc1cnc2n1Cc1cc(C(F)(F)F)ncc1-c1cnc(NCc3c(F)ccc4c3CCO4)n3cnc-2c13` [E 37, 5-ethyl-N-((5-fluoro-2,3-dihydrobenzofuran-4-yl)methyl)-8-(trifluoromethyl)-6H-2,3,5a,9,12,13a-hexaazabenzo[4,5]cyclopenta[7,8]cycloocta[1,2,3-cd]inden-13-amine], the IC50 (IC50 class, Table 4B) lay in the range of 10 to 100 nM.
For `Cc1nn(C)c2c1-c1cnc(NCc3c(F)ccc4c3CCO4)n3cnc(c13)C(=O)N(C1CC1)C2` [Compound 56, 4-cyclopropyl-11-(((5-fluoro-2,3-dihydrobenzo-furan-4-yl)methyl)amino)-6,8-dimethyl-5,6-dihydro-2,4,6,7,10,11a-hexaazacyclopenta[4,5]cycloocta [1,2,3-cd]inden-3(4H)-one], the IC50 (Table 4A) was determined as 4.49 nM.
For `COc1cccc(F)c1CNc1ncc2c3c(ncn13)C(=O)OCc1cc(C(F)(F)F)ccc1-2` [Compound 28, 12-((2-fluoro-6-methoxybenzyl)amino)-7-(trifluoro-methyl)-3H,5H-4-oxa-2,11,12a-triazabenzo[4,5] cycloocta[1,2,3-cd]inden-3-one], for the setting “Table 4A”, the IC50 worked out at 2.58 nM.
Still for that read-out and setting: in the case of `O=C1NCc2ccc(C(F)(F)F)cc2-c2cnc(NCc3c(F)ccc4c3CCO4)n3cnc1c23` [Compound 26, 12-(((5-fluoro-2,3-dihydrobenzofuran-4-yl)methyl)amino)-8-(trifluoromethyl)-4,5-dihydro-3H-2,4,11, 12a-tetraazabenzo[4,5]cycloocta[1,2,3-cd]inden-3-one] it was 9.84 nM; in that of `O=C1c2ncn3c(NCc4c(F)ccc5c4CCO5)ncc(c23)-c2cnc(C(F)(F)F)cc2CN1CC1(O)CC1` [Compound 43, 12-(((5-fluoro-2,3-dihydrobenzofuran-4-yl)methyl)amino)-4-((1-hydroxycyclopropyl)methyl)-7-(trifluoromethyl)-4,5-dihydro-3H-2,4,8,11,12a-pentaazabenzo[4,5]cycloocta[1,2,3-cd]inden-3-one], 1.05 nM.
As for `Cc1ccc2c(n1)Cc1conc1-c1ncn3c(NCc4c(F)ccc5c4CCO5)ncc-2c13` [E 36, N-((5-fluoro-2,3-dihydrobenzofuran-4-yl)methyl)-8-methyl-6H-4-oxa-2,3,7,12,13a-pentaazabenzo [4,5]cyclopenta[7,8]cycloocta[1,2,3-cd]inden-13-amine], the IC50 (IC50 class, Table 4B) fell in the range of 10 to 100 nM.
On the same count and under the same terms, in the case of `CC(C)N1Cc2cc(C#N)ccc2-c2cnc(NCc3c(F)ccc4c3CCO4)n3cnc(c23)C1=O` [E 4, 12-(((5-fluoro-2,3-dihydrobenzofuran-4-yl)methyl)amino)-4-isopropyl-3-oxo-4,5-dihydro-3H-2,4,11, 12a-tetraazabenzo[4,5]cycloocta[1,2,3-cd]indene-7-carbonitrile] it was under 10 nM.
On the same count and under the same terms, with `CCc1ccc2c(n1)CN(CC(C)(F)F)C(=O)c1ncn3c(NCc4c(F)ccc5c4CCO5)ncc-2c13` [E 16, 4-(2,2-difluoropropyl)-7-ethyl-12-(((5-fluoro-2,3-dihydrobenzofuran-4-yl)methyl)amino)-4,5-dihydro-3H-2,4,6,11,12a-pentaazabenzo[4,5]cycloocta [1,2,3-cd]inden-3-one] the figure was under 10 nM.
Turning to `O=C1OCc2ncccc2-c2cnc(NCc3c(F)ccc4c3CCO4)n3cnc1c23` [Compound 12, 12-(((5-fluoro-2,3-dihydrobenzofuran-4-yl)methyl)amino)-3H,5H-4-oxa-2,6,11,12a-tetraazabenzo[4,5]cycloocta[1,2,3-cd]inden-3-one], the IC50 (Table 4A) came out at 0.34 nM.
For the compound `COc1cccc(F)c1CNc1ncc2c3c(ncn13)C(=O)N(C1CC1)Cc1cc(C(F)(F)F)ncc1-2` [Compound 70, 4-cyclopropyl-12-((2-fluoro-6-methoxybenzyl)amino)-7-(trifluoromethyl)-4,5-dihydro-3H-2,4,8, 11,12a-pentaazabenzo[4,5]cycloocta[1,2,3-cd] inden-3-one], the IC50 (Table 4A) is over 100 nM.
On the same count and under the same terms, with `CC(F)(F)CN1Cc2cc(C(F)(F)F)ncc2-c2cnc(NCc3c(F)ccc4c3CCO4)n3cnc(c23)C1=O` [Compound 82, 4-(2,2-difluoropropyl)-12-(((5-fluoro-2,3-dihydrobenzofuran-4-yl)methyl)amino)-7-(trifluoromethyl)-4,5-dihydro-3H-2,4,8,11,12a-pentaazabenzo[4,5] cycloocta[1,2,3-cd]inden-3-one] the figure was 10.5 nM.
Turning to `O=C1NCc2cc(C(F)(F)F)ccc2-c2cnc(NCc3c(F)ccc4c3CCO4)n3cnc1c23` [Compound 19, 12-(((5-fluoro-2,3-dihydrobenzofuran-4-yl)methyl)amino)-7-(trifluoromethyl)-4,5-dihydro-3H-2,4,11, 12a-tetraazabenzo[4,5]cycloocta[1,2,3-cd]inden-3-one], the IC50 (Table 4A) came to 1.13 nM.
